This test deals with C-Raf FL (full length CRAF with Y340E and Y341E activating mutations, co-expressed with h14-3-3 zeta) (Homo sapiens (Human), UniProt P04049, Y340E/Y341E). The test can be described thus: In vitro Raf activity determination, AlphaScreen p-MEK readout, c-Raf (C-Raf FL). Format: biochemical. Conditions: c-Raf approximately 4 nM, ATP 1 μM, pre-incubation 60 minutes, reaction 1 hour. An outline of the steps:
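Full-length C-Raf (~4 nM) pre-incubated 60 min at room temperature with compound and kinase-dead biotinylated MEK1 (~10 nM) in Tris pH 7.5, 15 mM MgCl2, BSA, DTT. Reaction started with 1 μM ATP and run 1 h at room temperature. Phospho-MEK detected by AlphaScreen with anti-p-MEK antibody.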

This is an account of results in patent US10377770B2 (Novartis AG, priority 2015, dated 2019).

C-Raf FL (full length CRAF with Y340E and Y341E activating mutations, co-expressed with h14-3-3 zeta), sequence (P04049 whole entry Y340E/Y341E): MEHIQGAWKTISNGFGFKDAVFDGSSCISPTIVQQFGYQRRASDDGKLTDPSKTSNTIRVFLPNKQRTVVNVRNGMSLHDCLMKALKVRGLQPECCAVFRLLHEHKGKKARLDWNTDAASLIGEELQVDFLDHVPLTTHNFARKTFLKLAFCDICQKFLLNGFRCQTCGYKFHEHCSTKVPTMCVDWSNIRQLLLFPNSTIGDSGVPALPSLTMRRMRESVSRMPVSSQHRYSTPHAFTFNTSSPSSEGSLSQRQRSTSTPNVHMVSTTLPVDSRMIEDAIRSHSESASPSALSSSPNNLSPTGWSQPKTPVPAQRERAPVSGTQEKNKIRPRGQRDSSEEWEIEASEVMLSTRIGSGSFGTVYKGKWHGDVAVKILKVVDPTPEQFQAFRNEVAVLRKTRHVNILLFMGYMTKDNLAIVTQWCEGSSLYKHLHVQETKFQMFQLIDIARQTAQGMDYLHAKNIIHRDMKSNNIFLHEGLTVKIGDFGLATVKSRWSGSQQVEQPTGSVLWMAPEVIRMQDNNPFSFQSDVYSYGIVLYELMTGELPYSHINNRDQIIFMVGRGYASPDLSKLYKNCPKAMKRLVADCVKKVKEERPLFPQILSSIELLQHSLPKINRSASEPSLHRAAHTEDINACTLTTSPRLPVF
C-Raf FL (full length CRAF with Y340E and Y341E activating mutations, co-expressed with h14-3-3 zeta), sequence (P63104 whole entry partner): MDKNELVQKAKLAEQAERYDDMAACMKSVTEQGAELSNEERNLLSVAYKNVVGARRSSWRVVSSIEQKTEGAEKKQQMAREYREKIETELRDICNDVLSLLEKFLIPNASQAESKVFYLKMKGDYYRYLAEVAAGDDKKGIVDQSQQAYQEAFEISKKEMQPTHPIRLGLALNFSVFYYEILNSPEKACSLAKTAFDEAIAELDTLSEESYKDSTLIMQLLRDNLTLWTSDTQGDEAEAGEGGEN

Regarding `Cc1ccc(NC(=O)c2ccnc(C(F)(F)F)c2)cc1-c1ccc2c(c1)N1CCOC[C@H]1[C@@](F)(CO)C2` [Example 396, N-(3-((4aS,5R)-5-fluoro-5-(hydroxymethyl)-1,2,4,4a,5,6-hexahydro-[1,4]oxazino[4,3-a]quinolin-9-yl)-4-methylphenyl)-2-(trifluoromethyl)isonicotinamide], the IC50 was 0.2 nM. That is a sub-nanomolar value. As for `CCN1C(=O)CC2COCCN2c2cc(-c3cc(NC(=O)c4cccc(C(F)(F)F)c4)cnc3C)cnc21` (racemic) [Example 131, rac-N-(5-(7-Ethyl-6-oxo-1,2,4a,5,6,7-hexahydro-4H-[1,4]oxazino[4,3-d]pyrido[2,3-b][1,4]diazepin-10-yl)-6-methylpyridin-3-yl)-3-(trifluoromethyl)benzamide], half-maximal inhibition (IC50) was put at 0.06 nM.

`Cc1ccc(NC(=O)c2ccnc(C(F)(F)F)c2F)cc1-c1cc2n(c(=O)c1)CC[C@@H]1COCCN21` [Example 415, (R)-3-fluoro-N-(4-methyl-3-(8-oxo-1,2,4,4a,5,6-hexahydro-8H-pyrido[2′,1′:2,3]pyrimido[6,1-c][1,4]oxazin-10-yl)phenyl)-2-(trifluoromethyl)isonicotinamide] showed a half-inhibitory concentration (IC50) of 0.8 nM. `Cc1ccc(NC(=O)c2ccnc(C(C)(C)F)c2)cc1-c1cnc2c(c1)N1CCOC[C@@H]1C[C@@H]2O` [Example 143, 2-(2-fluoropropan-2-yl)-N-(3-((4aS,6S)-6-hydroxy-1,2,4,4a,5,6-hexahydro-[1,4]oxazino[4,3 a][1,5]naphthyridin 9-yl)-4-methylphenyl)isonicotinamide] had an IC50 of 0.0088 nM. Take `Cc1ccc(NC(=O)c2ccnc(C(C)(C)F)c2)cc1-c1ccc2c(c1)N1CCOC[C@H]1[C@](F)(CO)C2` [Example 386, N-(3-((4aS,5S)-5-fluoro-5-(hydroxymethyl)-1,2,4,4a,5,6-hexahydro-[1,4]oxazino[4,3-a]quinolin-9-yl)-4-methylphenyl)-2-(2-fluoropropan-2-yl)isonicotinamide]: the IC50 turned out to be 0.3 nM. For `CCN1C(=O)C2COCCN2c2cc(-c3cc(NC(=O)c4ccnc(C(F)(F)F)c4)ccc3C)cnc21` (stereo in doubt) [Example 115, (R)-N-(3-(6-ethyl-5-oxo-1,2,4,4a,5,6-hexahydropyrido2′,3′:5,6]pyrazino[2,1-c][1,4]oxazin-9-yl)-4-methylphenyl)-2-(trifluoromethyl)isonicotinamide], the midpoint of inhibition, the IC50, lay at 0.011 nM.
